Test results as given in ChEMBL document CHEMBL3124883, “Halting HCV Replication with NS5A Inhibitors and NS5B Polymerase Inhibitors: Effective New Treatments of HCV Infection” (ACS Med Chem Lett, 2014).
pEC50: −log10 of the molar value. Active and inactive are the calls of the source. The rule behind the calls is not given here.

test system: Hepatitis C virus; experiment: Antiviral activity against HCV infected in human HuH7 cells assessed as inhibition of RNA replication after 72 hrs by luciferase reporter gene assay; format: functional, organism-based; details: Hepacivirus hominis; Huh-7

For `Cc1c(-c2ccccn2)n(C2CCCC2)c2ccc(C(=O)NC3(c4nc5cc(/C=C/C(=O)O)ccc5n4C)CCC3)cc12`, which inhibition is on record?
Its inhibition is “Active”.

With `C/C(=C\c1ccc2nc(C3(NC(=O)c4ccc5c(C6CCCC6)c(-c6cccc7cc(C)[nH]c67)n(C)c5c4)CCC3)n(C)c2c1)C(=O)O` as the molecule, how does the inhibition read?
The inhibition was “Active”.

For `Cn1c(C2(NC(=O)c3ccc4c(C5CCCC5)c(-c5ccccn5)n(C)c4c3)CCC2)nc2cc(/C=C/C(=O)O)ccc21`, which inhibition is on record?
Its inhibition is “Active”.

`Cn1c(-c2cnccn2)c(C2CCCC2)c2ccc(C(=O)NC3(c4nc5ccc(/C=C/C(=O)O)cc5n4C4CCC4)CCCC3)cc21` was tested. Which inhibition did it give?
The inhibition was “Active”.

test system: Hepatitis C virus; experiment: Antiviral activity against HCV genotype 1b infected in human HuH7 cells assessed as total cellular RNA after 5 days by RT-PCR analysis; format: functional, organism-based, Hepacivirus hominis; details: Huh-7, 120 h

With `COC(=O)N[C@H](C(=O)N1C[C@@H](SC)C[C@H]1c1ncc(-c2ccc(-c3ccc(-c4cnc([C@@H]5C[C@H](SC)CN5C(=O)[C@@H](NC(=O)OC)c5ccccc5)[nH]4)cc3)cc2)[nH]1)c1ccccc1` as the molecule, how does the pEC50 read?
Its pEC50 is over 9.00.

With `COC(=O)N[C@@H](CC(C)C)C(=O)N1CCC[C@H]1c1ncc(-c2ccc(-c3ccccc3)cc2)[nH]1` as the molecule, how does the pEC50 read?
Its pEC50 is 7.00.

`C#Cc1ccc(-c2cn(-c3ccc(-c4cnc(-c5cnc([C@@H]6CCCN6C(=O)[C@@H](NC(=O)OC)C(C)C)[nH]5)[nH]4)cc3)nn2)cc1` was tested. Which pEC50 did it give?
Its pEC50 is 9.00.
